Experimental data from PMC5312321, “A general strategy to optimize immunogenicity of HLA-B*0702 restricted cryptic peptides from tumor associated antigens: Design of universal neo-antigen like tumor vaccines for HLA-B*0702 positive patients” (Oncotarget, 2016).

How the values were obtained:
[1] = test system: HLA-B*0702 transgenic mice; assay: Vaccination of HLA-B*0702 transgenic mice; specific CTLs detected by cytotoxicity or IFNγ ELISPOT; format: in vivo, mouse; conditions: for cross recognition of the native peptide by CTLs induced by the optimized peptide in mice (in words): HLA-B*0702 transgenic mice, target cells loaded with native peptide; for Immunogenicity against optimized peptide (responding mice/vaccinated mice) / Immunogenicity against native peptide (responding mice/vaccinated mice): mice vaccinated twice with the optimized peptide; for Immunogenicity against optimized peptide (responding mice/vaccinated mice): cytotoxicity or IFNγ ELISPOT against target cells loaded with the optimized peptide; for Immunogenicity against native peptide (responding mice/vaccinated mice): target cells loaded with the corresponding native peptide; for immunogenicity in HLA-B*0702 transgenic mice (in words): specific CTL induction after vaccination, cytotoxicity (ratio 30/1) or IFNγ ELISpot
Description: The HLA-B7 H-2 class-I knockout mice were previously described.
Mice were injected subcutaneously with 100 μg of peptide emulsified in Incomplete Freund's Adjuvant (IFA) in the presence of 150 μg of the I-A^b restricted HBVcore128 T helper epitope ([…]) twice at two weeks interval.
A particular protocol was applied for MAGE-A 274L9, with two injections of this peptide at two weeks interval and 15 days later one injection with each one of the native peptide.
On day 6 of culture the bulk responder populations were tested for specific cytotoxicity. […] Percentage of specific lysis was determined as: % Lysis = (Experimental Release-Spontaneous Release) / (Maximal Release-Spontaneous Release) × 100. Spontaneous release is obtained using medium only, maximum release with HCl 0.1 M.
Seven days after the last vaccination, spleens were removed and T cells were isolated by Ficoll centrifugation and tested ex vivo for the recognition of 10 μM of either the native or optimized peptide. IFNγ producing T cells were quantified by ELISpot using the Diaclone Kit Murine IFNγ ELISpot (Besançon, France) according to manufacturer's recommendations. 250 000 spleen T cells were distributed per well and tested for the recognition of 10 μM of either the native or optimized peptide. Positive control was Concanavalin A and negative control was medium alone. All conditions were tested in sixplicates.

[2] = test system: CD8+ T cells from healthy donors; assay: In vitro induction of specific CTLs from PBMC of healthy HLA-B*0702 donors (IFNγ intracellular staining or ELISPOT); format: cell-based, human; conditions: for immunogenicity in vitro in human PBMC (in words): CD8+ T cells from healthy donors, four stimulations with peptide loaded autologous DC; for Immunogenicity against optimized peptide (number of positive culture/number of total cultures): human healthy donor PBMC stimulated with optimized peptide loaded DC, T2-B7 cells loaded with optimized peptide; for Immunogenicity against native peptide (number of positive culture/number of total cultures): human healthy donor PBMC stimulated with optimized peptide, T2-B7 cells loaded with corresponding native peptide
Description: CD8+ T cells from healthy donors were in vitro stimulated with autologous dendritic cells loaded with each optimized cryptic peptide. After four stimulations, proliferating cells were tested for the presence of IFNγ producing CTLs upon stimulation with T2-B7 cells loaded with optimized or native peptides either by intracellular IFNγ staining or by IFNγ ELISPOT assay.
PBMC were collected by leukapheresis from healthy HLA-A*B702 volunteers. Dendritic cells (DC) were produced from adherent cells cultured with 500 IU/ml GM-CSF and 500 IU/ml IL-4, in complete synthetic medium (AIMV) for seven days. On day 7, DCs were pulsed with 10 μM of peptide during 2 hours and CD8^+ cells were purified by negative selection with CD8 Dynabeads Untouched Human CD8. CD8^+ cells (2 × 10^5) + CD8^− cells (6 × 10^4) were stimulated with 3 × 10^4 peptide-pulsed DC in AIMV medium supplemented with 1000 IU/ml IL-6 and 5 IU/ml IL-12 in round-bottomed 96-well plates.
From day 7, cultures were stimulated weekly with peptide-loaded DC in the presence of 20 IU/ml IL-2 and 10 ng/ml IL-7, 1 μg/ml anti-CD40 and 500 IU/ml IFNγ.
After the third stimulation, CD8 cells were maintained in AIMV supplemented with 20 IU/ml IL-2 during 7 days. Cultures were starved overnight with AIMV and then were tested in an intracellular IFNγ and an IFNγ ELISpot assay.
Stimulated T cells (10^5) from each pool were incubated with 2 × 10^5 T2 cells loaded with stimulating peptide in the presence of 20 μg/ml Brefeldin-A (Sigma, Oakville, Canada). Six hours later they were washed, stained with r-phycoerythrin-conjugated anti-CD8 antibody (Caltag Laboratories, Burlingame, CA, USA) in PBS for 25 min at 4°C, washed again, and fixed with 4% PFA. The cells were then permeabilized with PBS, 0.5% BSA, 0.2% saponin (Sigma, Oakville, Canada), and labelled with an allophycocyanin-conjugated anti-IFNγ mAb (PharMingen, Mississauga, Canada) for 25 min at 4°C before analysis with a FACSCalibur® flow cytometer.
Stimulated T cells were splited in four pools and IFNγ producing T cells was quantified in each pool by ELISpot using the Diaclone Kit Human IFNγ ELISpot (Besançon, France) according to manufacturer's recommendations. 250 000 cells were distributed per well and tested for the recognition of 10 μM of either the native or optimized peptide. Positive control was Concanavalin A and negative control was medium alone or an irrelevant peptide. All conditions were tested in sixplicates.

HLA-B*0702 = target: T1, HLA-B*0702 (Homo sapiens, UniProt P01889); assay: Measurement of peptide relative affinity to HLA-B*0702 (surface expression on T2-B7 cells); format: cell-based; conditions: for RA (Relative Affinity): 37°C 16 hours, peptide 100 μM to 0.1 μM, ME-1 mAb staining, RA = concentration inducing 20% of HLA-B*0702 expression / that of reference R10V, mean ± SD, at least three experiments, ≥ 10 = 10 or not measurable; for binding to / affinity for HLA-B*0702 (in words): relative to reference peptide R10V
T1 construct: expressed in transfected cells; host or cells: human T2-B7 cells (T2 transfected with HLA-B*0702)
Description: The protocol used has been described previously. Briefly, T2-B7 cells were incubated at 37°C for 16 hours with peptides concentrations ranging from 100 μM to 0.1 μM (100 μM, 10 μM, 1 μM and 0.1μM), and then stained with ME-1 monoclonal antibody (mAb) to quantify the surface expression of HLA-B*0702. For each peptide concentration, the HLA-B*0702 specific staining was calculated as the percentage of staining obtained with 100 μM of the reference peptide CMV265–274 (R10V; […], SEQ ID NO: 9). The relative affinity (RA) was determined as: RA = (Concentration of each peptide that induces 20% of HLA-B*0702-expression/Concentration of the reference R10V peptide that induces 20% of HLA-B*0702 expression). In case of non-binders peptide, RA is not evaluable since the 20% of HLA-B*0702 expression is not reach even with the highest concentration of peptide.

| Sequence | cross recognition of the native peptide by CTLs induced by the optimized peptide in mice (in words) [1] | Immunogenicity against optimized peptide (responding mice/vaccinated mice) [1] | Immunogenicity against native peptide (responding mice/vaccinated mice) [1] | immunogenicity in HLA-B*0702 transgenic mice (in words) [1] | immunogenicity in vitro in human PBMC (in words) [2] | Immunogenicity against optimized peptide (number of positive culture/number of total cultures) [2] | Immunogenicity against native peptide (number of positive culture/number of total cultures) [2] | RA (Relative Affinity) (HLA-B*0702; SD) | binding to / affinity for HLA-B*0702 (in words) (HLA-B*0702) | (Number of spots – background)/10^6 cells ([1]; IFNγ ELISpot, Figure 3, value printed in the picture, mouse vaccinated twice at two weeks interval, statistically significant (*)) | Immunogenicity against native peptide MAGE-A1_267 (responding mice/vaccinated mice) ([1]; mice vaccinated with optimized peptide, target cells loaded with MAGE-A1_267) | Immunogenicity against native peptide MAGE-A2_274 (responding mice/vaccinated mice) ([1]; mice vaccinated with optimized peptide, target cells loaded with MAGE-A2_274) | Immunogenicity against native peptide MAGE-A3_274 (responding mice/vaccinated mice) ([1]; mice vaccinated with optimized peptide, target cells loaded with MAGE-A3_274) | cross recognition of native peptide by human CTLs induced by the optimized peptide (in words) ([2]; T2-B7 cells loaded with optimized or native peptides, IFNγ staining or ELISPOT) | Immunogenicity against native peptide MAGE-A1_269 (positive culture/total cultures) ([2]; human PBMC stimulated with optimized peptide, targets loaded with MAGE-A1_269 as printed) | Immunogenicity against native peptide MAGE-A2_274 (positive culture/total cultures) ([2]; human PBMC stimulated with optimized peptide, targets loaded with MAGE-A2_274) | Immunogenicity against native peptide MAGE-A3_274 (positive culture/total cultures) ([2]; human PBMC stimulated with optimized peptide, targets loaded with MAGE-A3_274) | RA (Relative Affinity) (HLA-B*0702) |
| --- | --- | --- | --- | --- | --- | --- | --- | --- | --- | --- | --- | --- | --- | --- | --- | --- | --- | --- |
| APKHSDCLA [HER2/neu246A1, optimized Her2/neu246 modified at position 1 by an alanine] | able to recognize target cells loaded with their corresponding native peptide | 8/12 | 5/12 | immunogenic | confirmed | 2/4 | 1/4 |  |  |  |  |  |  |  |  |  |  |  |
| APRRLVQLL [TERT444A1, optimized TERT444, alanine at position 1] |  |  |  |  | confirmed | 1/2 | 2/2 | 1.4 ± 0.83 | high HLA-B*0702 affinity |  |  |  |  |  |  |  |  |  |
| GPRALVETL [MAGE-A274 L9, optimized peptide derived from MAGE-A3_274, leucine at position 9] | able to recognize target cells loaded with MAGE-A3_274 but also MAGE-A1_267 and MAGE-A2_274 | 18/18 |  | immunogenic | confirmed | 2/4 |  |  |  | 3023 /10^6 cells | 3/8 | 3/5 | 4/5 | cross recognition of MAGE-A3_274 and MAGE-A2_274 was confirmed but not for MAGE-A1_267 | 0/4 | 2/4 | 2/4 |  |
| SPRLQLSNL [CEA188L9, optimized CEA188 modified at last position by a leucine] | able to recognize target cells loaded with their corresponding native peptide | 6/6 | 6/6 | immunogenic | confirmed | 1/3 | 2/3 |  |  |  |  |  |  |  |  |  |  |  |
| YPEEISSMVL [Hsp70_115, Hsp70 derived native cryptic peptide] |  |  |  | only the high affinity TERT4 was immunogenic |  |  |  |  | low affinity |  |  |  |  |  |  |  |  | ≥ 10 |
| YPVTNAVITV [Hsp70_137, Hsp70 derived native cryptic peptide] |  |  |  | only the high affinity TERT4 was immunogenic |  |  |  |  | low affinity |  |  |  |  |  |  |  |  | ≥ 10 |
